The source of these data is US10448639B2, “Fungicidal pyrazoles” (FMC CORPORATION, priority 2009, dated 2019).

For assay [1], the system named is Puccinia recondita f. sp. tritici. The experiment in a line: Test I: wheat leaf rust, preventive spray on wheat seedlings, visual disease rating. The following applies: 192 h, read-out: Test I rating (% disease control).
In the next assay the test system is Botrytis cinerea. The experiment in a line: Test B: tomato Botrytis, preventive spray on tomato seedlings, visual disease rating. Particulars: Botrytis cinerea, in Solanum lycopersicum, 120 h, read-out: Test B rating (% disease control).
Another assay has as its system Septoria tritici. The experiment in a line: Test G: wheat leaf blotch, preventive spray on wheat seedlings, visual disease rating. The following applies: Zymoseptoria tritici, in Triticum aestivum, 504 h, read-out: Test G rating (% disease control).
Another assay has as its system Alternaria solani. Kind of assay: Test C: tomato early blight, preventive spray on tomato seedlings, visual disease rating. Particulars: Alternaria solani, in Solanum lycopersicum, 168 h, read-out: Test C rating (% disease control).
Assay [2] has as its system Erysiphe graminis f sp. tritici. The experiment in a line: Test J: wheat powdery mildew, preventive spray on wheat seedlings, visual disease rating. The following applies: Blumeria graminis, in Triticum aestivum, 192 h, read-out: Test J rating (% disease control).
For the next assay, the system named is Septoria nodorum. Kind of assay: Test F: Septoria glume blotch, preventive spray on wheat seedlings, visual disease rating. Particulars: Parastagonospora nodorum, in Triticum aestivum, 192 h, read-out: Test F rating (% disease control).
In assay [3] the test system is Puccinia recondita f. sp. tritici. The experiment in a line: Test H: wheat leaf rust, curative spray on inoculated wheat seedlings, visual disease rating. Particulars: 144 h, read-out: Test H rating (% disease control).

Description for Septoria tritici: General protocol for preparing test suspensions for Tests A-J: the test compounds were first dissolved in acetone in an amount equal to 3% of the final volume and then suspended at the desired concentration (in ppm) in acetone and purified water (50/50 mix by volume) containing 250 ppm of the surfactant Trem® 014 (polyhydric alcohol esters). The resulting test suspensions were then used in Tests A-J. Spraying a 200 ppm test suspension to the point of run-off on the test plants was the equivalent of a rate of 500 g/ha. Unless otherwise indicated, the rating values indicate a 200 ppm test suspension was used. (An asterisk “*” next to the rating value indicates a 40 ppm test suspension was used.)
The test suspension was sprayed to the point of run-off on wheat seedlings. The following day the seedlings were inoculated with a spore suspension of Septoria tritici (the causal agent of wheat leaf blotch) and incubated in saturated atmosphere at 24° C. for 48 h. and then the seedlings were moved to a growth chamber at 20° C. for 19 additional days, after which time visual disease ratings were made.

With `COc1cc(F)c(-c2c(C)nn(C)c2Oc2c(F)cc(Cl)cc2F)c(F)c1` [Compound 58, 5-(4-Chloro-2,6-difluorophenoxy)-4-(2,6-difluoro-4-methoxyphenyl)-1,3-dimethyl-1H-pyrazole], the pest or weed control at 200 µg/mL is 100% in assay [1]; 98% in the assay on Botrytis cinerea; 98% in the assay on Septoria tritici; 100% in the assay with Alternaria solani; 100% in assay [2]; 89% in the assay on Septoria nodorum. Besides, in assay [3], the pest or weed control at 200 µg/mL came out at 82%.
Regarding `Cc1nn(C)c(Nc2ccc(F)cc2F)c1-c1ccc(Cl)cc1Cl` [Compound 69, 4-(2,4-Dichlorophenyl)-N-(2,4-difluorophenyl)-1,3-dimethyl-1H-pyrazol-5-amine], the pest or weed control at 200 µg/mL in assay [1] was found to be 99%; in the assay on Botrytis cinerea, 100%; with Septoria tritici, 99%; with Alternaria solani it was 73%; in assay [2] it was 100%; with Septoria nodorum, 60%. The pest or weed control at 200 µg/mL in assay [3] worked out at 91%.
In the case of `COc1cc(F)c(-c2c(C)nn(C)c2Nc2ccc(F)cc2Cl)c(F)c1` [Compound 87, N-(2-chloro-4-fluorophenyl)-4-(2,6-difluoro-4-methoxyphenyl)-1,3-dimethyl-1H-pyrazol-5-amine], the pest or weed control at 200 µg/mL was determined as 99% in assay [1]; 100% in the assay on Botrytis cinerea; 98% in the assay on Septoria tritici; 100% in the assay with Alternaria solani; 100% in assay [2]; 95% in the assay on Septoria nodorum. For the same molecule, in assay [3], the pest or weed control at 200 µg/mL was 85%.
For the molecule `Cc1nn(C)c(Nc2c(F)cc(C#N)cc2F)c1-c1ccc(F)cc1Cl` [Compound 91, 4-[[4-(2-chloro-4-fluorophenyl)-1,3-dimethyl-1H-pyrazol-5-yl]amino]-3,5-difluorobenzonitrile], the pest or weed control at 200 µg/mL in assay [1] was determined as 100%; in the assay on Botrytis cinerea, 100%; with Septoria tritici, 99%; in the assay with Alternaria solani, 99%; in assay [2] it was 100%; in the assay on Septoria nodorum it was 95%. In addition, the pest or weed control at 200 µg/mL in assay [3] was found to be 0%.
For the molecule `Cc1nn(C)c(Oc2ccc(C#N)cc2F)c1-c1ccc(F)cc1Cl` [Compound 118, 4-[[4-(2-chloro-4-fluorophenyl)-1,3-dimethyl-1H-pyrazol-5-yl]oxy]-3-fluorobenzonitrile], the pest or weed control at 200 µg/mL in assay [1] was determined as 100%; with Botrytis cinerea, 100%; with Septoria tritici, 100%; in the assay with Alternaria solani, 100%; in assay [2], 99%; in the assay with Septoria nodorum, 98%. The pest or weed control at 200 µg/mL in assay [3] worked out at 99%.
As to `Cc1nn(C)c(Oc2ccc(C#N)cc2Cl)c1-c1ccc(F)cc1Cl` [Compound 139, 3-chloro-4-[[4-(2-chloro-4-fluorophenyl)-1,3-dimethyl-1H-pyrazol-5-yl]oxy]benzonitrile], the pest or weed control at 200 µg/mL was 99% in assay [1]; 100% in the assay with Botrytis cinerea; 100% in the assay on Septoria tritici; 86% with Alternaria solani; 100% in assay [2]; 100% in the assay with Septoria nodorum. Moreover, the pest or weed control at 200 µg/mL in assay [3] stood at 69%.
`Cc1nn(C)c(Oc2cc(F)c(C#N)cc2F)c1-c1ccc(F)cc1Cl` [Compound 148, 4-[[4-(2-chloro-4-fluorophenyl)-1,3-dimethyl-1H-pyrazol-5-yl]oxy]-2,5-difluorobenzonitrile]: the pest or weed control at 200 µg/mL amounted to 100% in assay [1]; 99% with Botrytis cinerea; 100% with Septoria tritici; 99% in the assay with Alternaria solani; 99% in assay [2]; 100% in the assay on Septoria nodorum. For the same molecule, the pest or weed control at 200 µg/mL in assay [3] amounted to 61%.
As to `Cc1nn(C)c(Nc2c(F)cccc2F)c1-c1ccc(F)cc1Cl` [Compound 172, 4-(2-chloro-4-fluorophenyl)-N-(2,6-difluorophenyl)-1,3-dimethyl-1H-pyrazol-5-amine], the pest or weed control at 200 µg/mL was 99% in assay [1]; 100% with Botrytis cinerea; 100% in the assay with Septoria tritici; 100% in the assay on Alternaria solani; 100% in assay [2]; 87% with Septoria nodorum. The pest or weed control at 200 µg/mL in assay [3] worked out at 0%.
With `Cc1nn(C)c(Nc2ccc(F)cc2Cl)c1-c1ccc(F)cc1Cl` [Compound 175, N,4-bis(2-chloro-4-fluorophenyl)-1,3-dimethyl-1H-pyrazol-5-amine], the pest or weed control at 200 µg/mL in assay [1] was 99%; with Botrytis cinerea, 100%; with Septoria tritici, 96%; with Alternaria solani, 99%; in assay [2], 100%; in the assay on Septoria nodorum, 82%. Besides, in assay [3], the pest or weed control at 200 µg/mL was 93%.
On to `Cc1nn(C)c(Nc2ccc(F)cc2Cl)c1-c1c(F)cccc1Cl` [Compound 193, N-(2-chloro-4-fluorophenyl)-4-(2-chloro-6-fluorophenyl)-1,3-dimethyl-1H-pyrazol-5-amine], for which the pest or weed control at 200 µg/mL in assay [1] is 99%; with Botrytis cinerea it was 99%; with Septoria tritici, 100%; with Alternaria solani, 100%; in assay [2] it was 100%; in the assay on Septoria nodorum it was 0%. The pest or weed control at 200 µg/mL in assay [3] stood at 32%.
For `Cc1nn(C)c(Oc2c(F)cc(C#N)cc2F)c1-c1ccc(F)cc1Br` [Compound 232, 4-[[4-(2-bromo-4-fluorophenyl)-1,3-dimethyl-1H-pyrazol-5-yl]oxy]-3,5-difluorobenzonitrile], the pest or weed control at 200 µg/mL in assay [1] is 100%; in the assay with Botrytis cinerea, 100%; in the assay with Septoria tritici, 100%; with Alternaria solani it was 99%; in assay [2], 100%; in the assay with Septoria nodorum, 99%. Besides, in assay [3], the pest or weed control at 200 µg/mL is 0%.
Consider `Cc1nn(C)c(Nc2ccc(F)cc2Br)c1-c1ccc(F)cc1Cl` [Compound 265, N-(2-bromo-4-fluorophenyl)-4-(2-chloro-4-fluorophenyl)-1,3-dimethyl-1H-pyrazol-5-amine], for which the pest or weed control at 200 µg/mL in assay [1] was determined as 100%; in the assay on Botrytis cinerea, 100%; with Septoria tritici, 100%; with Alternaria solani, 99%; in assay [2] it was 100%; in the assay with Septoria nodorum it was 78%. The pest or weed control at 200 µg/mL in assay [3] was determined as 90%.
`Cc1nn(C)c(Nc2c(F)cc(F)cc2F)c1-c1ccc(F)cc1Br` [Compound 266, 4-(2-bromo-4-fluorophenyl)-1,3-dimethyl-N-(2,4,6-trifluorophenyl)-1H-pyrazol-5-amine]: the pest or weed control at 200 µg/mL in assay [1] was 100%; with Botrytis cinerea, 100%; in the assay on Septoria tritici, 100%; in the assay with Alternaria solani it was 100%; in assay [2], 100%; in the assay on Septoria nodorum it was 98%. Further, the pest or weed control at 200 µg/mL in assay [3] was 0%.
With `Cc1nn(C)c(Nc2c(F)cc(F)cc2Cl)c1-c1ccc(F)cc1Br` [Compound 292, 4-(2-bromo-4-fluorophenyl)-N-(2-chloro-4,6-difluorophenyl)-1,3-dimethyl-1H-pyrazol-5-amine], the pest or weed control at 200 µg/mL in assay [1] is 100%; in the assay with Botrytis cinerea, 100%; with Septoria tritici it was 100%; in the assay on Alternaria solani, 99%; in assay [2], 100%; with Septoria nodorum, 96%. Besides, the pest or weed control at 200 µg/mL in assay [3] was determined as 92%.
With `Cc1nn(C)c(Nc2c(F)cc(F)cc2Cl)c1-c1c(F)cccc1F` [Compound 297, N-(2-chloro-4,6-difluorophenyl)-4-(2,6-difluorophenyl)-1,3-dimethyl-1H-pyrazol-5-amine], the pest or weed control at 200 µg/mL in assay [1] came out at 100%; with Botrytis cinerea, 100%; in the assay with Septoria tritici it was 100%; in the assay on Alternaria solani, 99%; in assay [2] it was 100%; in the assay on Septoria nodorum, 90%. The pest or weed control at 200 µg/mL in assay [3] is 0%.
